Data reported in patent publication US10954405B2, “Water-based diacetylene ink, hydrochromic polydiacetylene paper prepared using the ink, and use thereof” (INDUSTRY-UNIVERSITY COOPERATION FOUNDATION HANYANG …, priority 2015, dated 2021).

Assay: Solubility of DA-1 in water dependent upon temperature (FIG. 6C)
Type: physicochemical
Conditions: sample of DA-1 and water in a plastic bag on a paper printed with "A", temperature elevated; clearer at 25° C. and 30° C.
Experimental: FIGS. 6A-6C are a set of photographs illustrating the temperature-dependent reaction of the moisture test paper manufactured according to the moisture test paper manufacture example and solubility of DA-1 in water dependent upon temperature.
Referring to FIG. 6C when a sample including DA-1 and water was put into a plastic bag, the plastic bag was put on a paper on which “A” was printed, and temperature was elevated, the lower “A” began to be observed from about 20° C. and became clearer as temperature was elevated to 25° C. and 30° C.

SMILES: CCCCCCCCCCCCC#CC#CCCCCCCCCC(=O)NCCCn1cc[n+](CC#N)c1 [DA-1]
- temperature from which DA-1 dissolves in water (printed "A" under the sample began to be observed): about 20 °C
